Assay results as given in ChEMBL document CHEMBL1132062, “A new class of potent RAR antagonists: dihydroanthracenyl, benzochromenyl and benzothiochromenyl retinoids” (Bioorg Med Chem Lett, 1999).

What was measured:
[1] = molecular target: T1, Retinoic acid receptor gamma (Homo sapiens) (UniProt P13631); experiment: Relative inhibition of TTNPB activity vs background activity(100% inhibition) against RAR gamma; type: functional; conditions: concentration not given here
T1 sequence (whole entry): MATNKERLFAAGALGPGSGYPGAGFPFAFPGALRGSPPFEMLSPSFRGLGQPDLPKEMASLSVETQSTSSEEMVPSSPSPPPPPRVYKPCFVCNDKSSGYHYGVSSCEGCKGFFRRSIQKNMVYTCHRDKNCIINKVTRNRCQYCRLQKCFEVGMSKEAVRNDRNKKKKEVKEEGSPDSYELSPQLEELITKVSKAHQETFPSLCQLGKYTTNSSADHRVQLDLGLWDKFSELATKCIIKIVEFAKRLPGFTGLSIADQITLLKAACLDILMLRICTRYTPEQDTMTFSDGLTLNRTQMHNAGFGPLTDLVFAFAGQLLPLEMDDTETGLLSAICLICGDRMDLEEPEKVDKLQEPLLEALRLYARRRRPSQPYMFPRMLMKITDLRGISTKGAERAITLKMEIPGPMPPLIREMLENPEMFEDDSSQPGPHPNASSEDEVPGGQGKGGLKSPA

[2] = molecular target: T2, Retinoic acid receptor alpha (Homo sapiens) (UniProt P10276); experiment: Relative inhibition of TTNPB activity vs background activity (100% inhibition) against RAR alpha; type: functional; conditions: concentration not given here
T2 sequence (whole entry): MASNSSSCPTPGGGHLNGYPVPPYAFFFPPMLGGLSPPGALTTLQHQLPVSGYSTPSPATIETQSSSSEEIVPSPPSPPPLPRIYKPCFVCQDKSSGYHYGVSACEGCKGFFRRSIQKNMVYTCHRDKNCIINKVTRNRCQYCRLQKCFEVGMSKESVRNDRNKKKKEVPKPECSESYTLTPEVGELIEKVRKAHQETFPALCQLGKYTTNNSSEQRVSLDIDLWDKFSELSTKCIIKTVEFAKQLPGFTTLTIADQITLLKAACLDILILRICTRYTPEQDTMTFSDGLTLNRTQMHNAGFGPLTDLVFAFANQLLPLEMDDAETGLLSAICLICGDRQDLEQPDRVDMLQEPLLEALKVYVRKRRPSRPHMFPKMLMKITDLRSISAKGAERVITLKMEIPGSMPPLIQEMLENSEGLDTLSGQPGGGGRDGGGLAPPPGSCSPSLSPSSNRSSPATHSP

[3] = molecular target: T3, Retinoic acid receptor beta (Homo sapiens) (UniProt P10826); experiment: Relative inhibition of TTNPB activity vs background activity (100% inhibition) against RAR beta; type: functional; conditions: concentration not given here
T3 sequence (whole entry): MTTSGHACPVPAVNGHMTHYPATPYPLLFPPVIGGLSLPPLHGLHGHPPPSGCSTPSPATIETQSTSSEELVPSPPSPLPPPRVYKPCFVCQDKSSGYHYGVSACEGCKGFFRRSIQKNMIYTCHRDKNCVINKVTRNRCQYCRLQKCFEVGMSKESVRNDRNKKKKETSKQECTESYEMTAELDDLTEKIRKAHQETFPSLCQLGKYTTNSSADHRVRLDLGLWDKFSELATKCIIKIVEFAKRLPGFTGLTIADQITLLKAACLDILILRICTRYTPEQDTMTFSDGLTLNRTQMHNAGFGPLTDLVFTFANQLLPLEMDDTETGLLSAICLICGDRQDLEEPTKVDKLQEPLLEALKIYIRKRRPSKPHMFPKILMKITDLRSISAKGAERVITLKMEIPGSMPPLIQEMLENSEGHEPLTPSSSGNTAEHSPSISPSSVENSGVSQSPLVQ

[4] = molecular target: T4, Retinoic acid receptor alpha (Homo sapiens, UniProt P10276); experiment: Binding affinity of [3H]- RA to baculovirus expressed human RAR alpha
T4 sequence (P10276 whole entry): T2 sequence (whole entry)

[5] = molecular target: T5, Retinoic acid receptor beta (Homo sapiens, UniProt P10826); experiment: Binding affinity of [3H]- RA to baculovirus expressed human Retinoic acid receptor beta
T5 sequence (P10826 whole entry): T3 sequence (whole entry)

[6] = molecular target: T6, Retinoic acid receptor gamma (Homo sapiens, UniProt P13631); experiment: Binding affinity of [3H]- RA to baculovirus expressed human Retinoic acid receptor gamma
T6 sequence (P13631 whole entry): T1 sequence (whole entry)

Mus musculus [7] = species on record: Mus musculus; experiment: Compound was tested for flaking score in mice at a dose of 3.6 nmol/25 g of TTNPB and 28.8 nmol/25 g of the compound; type: functional
Mus musculus [8] = species on record: Mus musculus; experiment: Compound was tested for cutaneous toxicity score in mice at a dose of 3.6 nmol/25 g of TTNPB and 7.2 nmol/25 g of the compound; type: functional
Mus musculus [9] = species on record: Mus musculus; experiment: Compound was tested for its effect on body weight gain in mice at a dose of 3.6 nmol/25 g of TTNPB and 7.2 nmol/25 g of the compound; type: functional
Mus musculus [10] = species on record: Mus musculus; experiment: Compound was tested for cutaneous toxicity score in mice at a dose of 3.6 nmol/25 g of TTNPB and 28.8 nmol/25 g of the compound; type: functional
Mus musculus [11] = species on record: Mus musculus; experiment: Compound was tested for abrasion score in mice at a dose of 3.6 nmol/25 g of TTNPB and 7.2 nmol/25 g of the compound; type: functional
Mus musculus [12] = species on record: Mus musculus; experiment: Compound was tested for abrasion score in mice at a dose of 3.6 nmol/25 g of TTNPB and 28.8 nmol/25 g of the compound; type: functional
Mus musculus [13] = species on record: Mus musculus; experiment: Compound was tested for flaking score in mice at a dose of 3.6 nmol/25 g of TTNPB and 7.2 nmol/25 g of the compound; type: functional
Mus musculus [14] = species on record: Mus musculus; experiment: Compound was tested for its effect on body weight gain in mice at a dose of 3.6 nmol/25 g of TTNPB and 28.8 nmol/25 g of the compound; type: functional
[15] = molecular target: T4, Retinoic acid receptor alpha; experiment: Antagonistic activity against RAR alpha in transcriptional activation assay with 32 nM TTNPB; type: functional
[16] = molecular target: T6, Retinoic acid receptor gamma; experiment: Antagonistic activity against RAR gamma in transcriptional activation assay with 3.2 nM TTNPB; type: functional
[17] = molecular target: T5, Retinoic acid receptor beta; experiment: Antagonistic activity against RAR beta in transcriptional activation assay with 10 nM TTNPB; type: functional
Mus musculus [18] = species on record: Mus musculus; experiment: Compound was tested for its effect on body weight gain in mice at a dose of 3.6 nmol/25 g; type: functional
Mus musculus [19] = species on record: Mus musculus; experiment: Compound was tested for flaking score in mice at a dose of 3.6 nmol/25 g; type: functional
Mus musculus [20] = species on record: Mus musculus; experiment: Compound was tested for cutaneous toxicity score in mice at a dose of 3.6 nmol/25 g; type: functional
Mus musculus [21] = species on record: Mus musculus; experiment: Compound was tested for abrasion score in mice at a dose of 3.6 nmol/25 g; type: functional

Compound | inhibition [1] [%] | inhibition [2] [%] | inhibition [3] [%] | Kd [4] [nM] | Kd [5] [nM] | Kd [6] [nM] | IC50 [15] [nM] | IC50 [16] [nM] | IC50 [17] [nM] | further results
Cc1ccc(C2=CC(C)(C)Oc3cc4ccc(-c5ccc(C(=O)O)cc5)cc4cc32)cc1 [listing 1 of 2 here] | 98 | 97 | 98 | – | – | – | – | – | – | –
Cc1ccc(C2=CC(C)(C)Sc3cc4ccc(-c5ccc(C(=O)O)cc5)cc4cc32)s1 | – | – | – | 13 | 13 | 18 | – | – | – | –
C/C(=C\c1ccc(C(=O)O)cc1)c1ccc2c(c1)C(C)(C)CCC2(C)C.Cc1ccc(C2=CC(C)(C)Oc3cc4ccc(-c5ccc(C(=O)O)cc5)cc4cc32)cc1 | – | – | – | – | – | – | – | – | – | Flaking score (Mus musculus [7]): 1; Cutaneous toxicology score (Mus musculus [8]): 1.9; Gain (Mus musculus [9]): 3%; Cutaneous toxicology score (Mus musculus [10]): 1; Abrasion score (Mus musculus [11]): 1; Abrasion score (Mus musculus [12]): 0; Flaking score (Mus musculus [13]): 1; Gain (Mus musculus [14]): 2%
C/C(=C\c1ccc(C(=O)O)cc1)c1ccc2c(c1)C(C)(C)CCC2(C)C.Cc1ccc(C2=CCC(C)(C)c3cc4ccc(-c5ccc(C(=O)O)cc5)cc4cc32)cc1 | – | – | – | – | – | – | – | – | – | Flaking score (Mus musculus [7]): 1; Cutaneous toxicology score (Mus musculus [8]): 2; Gain (Mus musculus [9]): 2%; Cutaneous toxicology score (Mus musculus [10]): 1.1; Abrasion score (Mus musculus [11]): 1; Abrasion score (Mus musculus [12]): 0; Flaking score (Mus musculus [13]): 1; Gain (Mus musculus [14]): 5%
C/C(=C\c1ccc(C(=O)O)cc1)c1ccc2c(c1)C(C)(C)CCC2(C)C.Cc1ccc(C2=CC(C)(C)Sc3cc4ccc(-c5ccc(C(=O)O)cc5)cc4cc32)cc1 | – | – | – | – | – | – | – | – | – | Flaking score (Mus musculus [7]): 1; Cutaneous toxicology score (Mus musculus [8]): 1.4; Gain (Mus musculus [9]): 5%; Cutaneous toxicology score (Mus musculus [10]): 0.7; Abrasion score (Mus musculus [11]): 0; Abrasion score (Mus musculus [12]): 0; Flaking score (Mus musculus [13]): 1; Gain (Mus musculus [14]): 0%
C/C(=C\c1ccc(C(=O)O)cc1)c1ccc2c(c1)C(C)(C)CCC2(C)C | – | – | – | – | – | – | – | – | – | Gain (Mus musculus [18]): 6%; Flaking score (Mus musculus [19]): 3; Cutaneous toxicology score (Mus musculus [20]): 11; Abrasion score (Mus musculus [21]): 2
Cc1ccc(C2=CC(C)(C)Oc3cc4ccc(-c5ccc(C(=O)O)cc5)cc4cc32)s1 | 97 | 97 | 98 | – | – | – | 6.5 | 4 | 6.5 | –
C/C(=C\c1ccc(C(=O)O)cc1)c1ccc2c(c1)C(C)(C)CCC2(C)C.Cc1ccc(C2=CC(C)(C)Oc3cc4ccc(-c5ccc(C(=O)O)cc5)cc4cc32)s1 | – | – | – | – | – | – | – | – | – | Flaking score (Mus musculus [7]): 2; Cutaneous toxicology score (Mus musculus [8]): 4.6; Gain (Mus musculus [9]): 6%; Cutaneous toxicology score (Mus musculus [10]): 3; Abrasion score (Mus musculus [11]): 3; Abrasion score (Mus musculus [12]): 1; Flaking score (Mus musculus [13]): 2; Gain (Mus musculus [14]): 1%

The next lines start with results.

inhibition [1] [%] | inhibition [2] [%] | inhibition [3] [%] | Kd [4] [nM] | Kd [5] [nM] | Kd [6] [nM] | IC50 [15] [nM] | IC50 [16] [nM] | IC50 [17] [nM] | Compound | further results
98 | 97 | 97 | – | – | – | – | – | – | Cc1ccc(C2=CCC(C)(C)c3cc4ccc(-c5ccc(C(=O)O)cc5)cc4cc32)cc1 [listing 1 of 2 here] | –
– | – | – | 14 | 7 | 14 | 5.5 | 2 | 7.5 | Cc1ccc(C2=CC(C)(C)Oc3cc4ccc(-c5ccc(C(=O)O)cc5)cc4cc32)cc1 [listing 2 of 2 here] | –
96 | 95 | 83 | 15 | 6 | 11 | 20 | 2 | 15 | Cc1ccc(C2=CCC(C)(C)c3cc4ccc(-c5ccc(C(=O)O)cc5)cc4cc32)s1 | –
– | – | – | 13 | 4 | 7 | 20 | 2 | 22 | Cc1ccc(C2=CCC(C)(C)c3cc4ccc(-c5ccc(C(=O)O)cc5)cc4cc32)cc1 [listing 2 of 2 here] | –
– | – | – | 5.5 | 6 | 5 | 1.5 | 0.5 | 2 | Cc1ccc(C2=CC(C)(C)Sc3cc4ccc(-c5ccc(C(=O)O)cc5)cc4cc32)cc1 [listing 1 of 2 here] | –
98 | 97 | 98 | – | – | – | – | – | – | Cc1ccc(C2=CC(C)(C)Sc3cc4ccc(-c5ccc(C(=O)O)cc5)cc4cc32)cc1 [listing 2 of 2 here] | –
